In PubChem BioAssay (NCI):
Several values for one entry are separate records, joined by “and”; a condition that tells them apart may be missing. Equal values may be shown once.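 Growth conditions: 96-well plates. Treatment: test compound, 48 hours, 5 concentrations. Analysis: linear interpolation between bracketing concentrations; unreached endpoints set to highest concentration. GI50 = concentration required for 50% inhibition of growth. Definition used: TGI = concentration required for complete inhibition of growth.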

Tests used:
Assay in all cases: NCI tumour cell line growth inhibition, 48 h
HS 578T breast = system: HS 578T breast
A549 NSCLC = system: A549 NSCLC
OVCAR-8 ovarian = system: OVCAR-8 ovarian
NCI-H226 lung = system: NCI-H226 lung
UACC-62 melanoma = system: UACC-62 melanoma
NCI-H460 lung = system: NCI-H460 lung
UACC-257 melanoma = system: UACC-257 melanoma
HT29 colon = system: HT29 colon
NCI-H522 lung = system: NCI-H522 lung
SR leukemia = system: SR leukemia

Structure (SMILES)	GI50 (HS 578T breast)	TGI (HS 578T breast)	GI50 (A549 NSCLC) [µM]	TGI (A549 NSCLC)	GI50 (OVCAR-8 ovarian)	TGI (OVCAR-8 ovarian)	GI50 (NCI-H226 lung)	TGI (NCI-H226 lung)	GI50 (UACC-62 melanoma)	TGI (UACC-62 melanoma)	GI50 (NCI-H460 lung) [µM]	TGI (NCI-H460 lung)	GI50 (UACC-257 melanoma)	TGI (UACC-257 melanoma)	GI50 (HT29 colon) [µM]	TGI (HT29 colon)	GI50 (NCI-H522 lung)	TGI (NCI-H522 lung)	GI50 (SR leukemia)	TGI (SR leukemia) [µM]
O=C(Nc1ccc(-c2ccccc2)cc1)C1CCN(S(=O)(=O)c2ccccc2Cl)CC1	12.6 µM	71.4 µM	29.5	> 100 µM	22.7 µM	57.1 µM	30.2 µM	> 100 µM	39.8 µM	> 100 µM	40.8	> 100 µM	28.1 µM	> 100 µM	> 100	> 100 µM	22.4 µM	> 100 µM	36.2 µM	> 100
COc1cc2c(c(OC)n1)[C@]1(O)[C@H](O)[C@H](CN(C)C)[C@@H](c3ccccc3)[C@]1(c1ccc(C#N)cc1)O2	0.0402 µM and 0.0367 µM	1.97 µM and 1.16 µM	< 0.01	8.42 µM and 8.64 µM	0.0292 µM and 0.0316 µM	10.1 µM and 11.5 µM	0.0254 µM and < 0.0131 µM	4.34 µM and 1.28 µM	0.0359 µM and 0.0358 µM	2.63 µM and 4.34 µM	< 0.01	3.48 µM and 6.88 µM	0.0417 µM and 0.0427 µM	2.45 µM and 2.12 µM	< 0.01	4.25 µM and 4.04 µM	0.0257 µM and 0.0212 µM	1.15 µM and 2.24 µM	0.0246 µM and < 0.0114 µM	4.48
CCc1ccccc1NC(=O)c1sc2nc3c(cc2c1N)C(=O)CCC3	0.398 µM	> 100 µM	0.656	> 100 µM	2.88 µM	> 100 µM	23.2 µM	> 100 µM	0.439 µM	> 100 µM	0.367	> 100 µM	27.6 µM	> 100 µM	0.372	29.5 µM	0.502 µM	> 100 µM	0.406 µM	> 100
O=c1[nH]cnc2cccc(Cl)c12	–	> 100 µM	–	> 100 µM	–	> 100 µM	–	> 100 µM	–	> 100 µM	–	> 100 µM	–	> 100 µM	–	> 100 µM	–	> 100 µM	–	> 100
O=C(/C=C/c1cc(CN2CCOCC2)c(O)c2ncccc12)c1cc(CN2CCOCC2)c(O)c2ncccc12	0.0713 µM	> 100 µM	0.0285	> 100 µM	0.0359 µM	> 100 µM	0.43 µM	41.8 µM	0.0457 µM	–	< 0.0169	> 55.9 µM	0.202 µM	8.88 µM	0.0695	> 100 µM	0.0208 µM	> 53.7 µM	0.0463 µM	> 100
NC(CS/C(Cl)=C/Cl)C(=O)O (stereo not drawn)	55.1 µM	> 100 µM	1.69	6.98 µM	24.1 µM	> 100 µM	> 100 µM	> 100 µM	57 µM	> 100 µM	0.427	2 µM	23.3 µM	78.8 µM	54.7	> 100 µM	> 55.6 µM	> 100 µM	34.9 µM	> 100
O=C(CSC(c1ccccc1)c1ccccc1)N/N=C/c1ccc(Cl)cc1Cl	34.8 µM	> 100 µM	20.5	51.1 µM	37.9 µM	> 100 µM	32.6 µM	> 100 µM	21.9 µM	> 100 µM	20.1	49.8 µM	23.1 µM	68.3 µM	–	–	12.4 µM	59.2 µM	17 µM	38.8
Nc1nc(SN=Nc2ccc(S(N)(=O)=O)cc2)c2[nH]cnc2n1	1.81 µM	> 50.2 µM	3.06	> 100 µM	0.419 µM	> 100 µM	0.867 µM	> 100 µM	0.379 µM	5.62 µM	0.384	13 µM	1.62 µM	> 100 µM	0.79	> 100 µM	1.08 µM	43.1 µM	0.186 µM	> 100
CC(=O)/C=C/c1ccc(C#Cc2ccccc2)s1	23.9 µM	56.3 µM	15.1	28.5 µM	19 µM	57.3 µM	18.4 µM	36.4 µM	17.5 µM	31.5 µM	16.2	33.3 µM	19.1 µM	34.3 µM	12	25.2 µM	12.7 µM	25.4 µM	–	–
Oc1cn(-c2ccc(Cl)cc2)nc1-c1n[nH]c(=S)n1C1CCCCC1	0.28 µM	–	2.03	> 48.8 µM	0.46 µM	16.8 µM	59.8 µM	> 100 µM	–	> 100 µM	0.334	> 100 µM	0.873 µM	> 100 µM	30.5	> 100 µM	0.373 µM	> 100 µM	< 0.0413 µM	> 100
NC(N)=NCCCCCNc1noc(Cc2c[nH]c3cc(Br)ccc23)n1	9.08 µM	90.2 µM	14.2	> 100 µM	10.4 µM	> 100 µM	13.6 µM	46.9 µM	7.48 µM	28.1 µM	12.4	43.3 µM	14.6 µM	80.3 µM	19.5	> 100 µM	13.6 µM	46.5 µM	13.8 µM	40
C[C@]12CC[C@@H]3c4ccc(O)cc4CC[C@H]3[C@@H]1CC[C@@H]2NS(=O)(=O)c1cccc(F)c1	3.88 µM	19.1 µM	3.13	12.6 µM	3.84 µM	15.8 µM	3.72 µM	16.7 µM	2.92 µM	11.3 µM	2.72	7.18 µM	4.07 µM	16.3 µM	3.2	10.1 µM	1.89 µM	7.6 µM	2.35 µM	8.28
CC(C)CNC(=O)O	–	> 100 µM	–	> 100 µM	–	> 100 µM	–	> 100 µM	–	> 100 µM	–	> 100 µM	–	> 100 µM	–	> 100 µM	–	> 100 µM	–	> 100
